One test concerns the target PKM2 (Homo sapiens, UniProt P14618). Briefly: PKM2 Biochemical Assay.
Conditions: not given
Sequence of PKM2 (P14618 whole entry): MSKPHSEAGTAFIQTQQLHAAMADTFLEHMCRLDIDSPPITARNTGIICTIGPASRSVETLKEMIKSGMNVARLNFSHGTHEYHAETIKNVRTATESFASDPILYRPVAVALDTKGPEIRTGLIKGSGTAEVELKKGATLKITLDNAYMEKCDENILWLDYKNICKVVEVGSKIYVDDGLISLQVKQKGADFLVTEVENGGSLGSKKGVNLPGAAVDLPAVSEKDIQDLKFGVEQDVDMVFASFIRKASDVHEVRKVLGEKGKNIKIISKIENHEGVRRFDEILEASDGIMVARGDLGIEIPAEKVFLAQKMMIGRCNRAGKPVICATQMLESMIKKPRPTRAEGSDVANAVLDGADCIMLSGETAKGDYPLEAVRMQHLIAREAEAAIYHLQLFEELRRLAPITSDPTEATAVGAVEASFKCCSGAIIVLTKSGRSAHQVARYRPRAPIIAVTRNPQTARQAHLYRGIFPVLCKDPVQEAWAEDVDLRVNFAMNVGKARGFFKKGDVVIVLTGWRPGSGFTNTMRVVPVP
As usually defined, the AC50 is the concentration giving half of the maximal activity seen. Read a high AC50 as activity only at high concentration. Turning to `CCN(CC)CCN(Cc1ccccc1Cl)C(=O)c1cc(Cl)n[nH]1` [Example 176, N-(2-chlorobenzyl)-3-chloro-N-(2-(diethylamino)ethyl)-1H-pyrazole-5-carboxamide], half-maximal activity (AC50) was put at 1.15 µM.

Staying with this test, now noted: % maximum response in a biochemical assay as compared with Fructose 1,6-bisphosphate.
As for `O=C(c1cc(C(F)(F)F)n[nH]1)N(CCN1CCCC1)Cc1ccccc1Cl` [Example 162, N-(2-chlorobenzyl)-3-(trifluoromethyl)-N-(2-(pyrrolidin-1-yl)ethyl)-1H-pyrazole-5-carboxamide], the “Max. Resp.” value was 100%.

Take `O=C(c1cc(C(F)(F)F)n[nH]1)N(CCN1CCCC1)Cc1cccc2nc[nH]c12` [Example 163, N-((1H-benzo[d]imidazol-7-yl)methyl)-3-(trifluoromethyl)-N-(2-(pyrrolidin-1-yl)ethyl)-1H-pyrazole-5-carboxamide]: the “Max. Resp.” value is recorded as 100%.

With `O=C(c1cc(C(F)(F)F)n[nH]1)N(CCN1CCCC1)Cc1cccc2[nH]ccc12` [Example 164, N-((1H-indol-4-yl)methyl)-3-(trifluoromethyl)-N-(2-(pyrrolidin-1-yl)ethyl)-1H-pyrazole-5-carboxamide], the “Max. Resp.” value is 100%.

Take `O=C(c1cc(C(F)(F)F)n[nH]1)N(CCN1CCCC1)Cc1ccc(Cl)cc1Cl` [Example 165, N-(2,4-dichlorobenzyl)-3-(trifluoromethyl)-N-(2-(pyrrolidin-1-yl)ethyl)-1H-pyrazole-5-carboxamide]: the “Max. Resp.” value stood at 50%.

As to `CCN(CC)CCN(Cc1cccc(Cl)c1Cl)C(=O)c1cc(C(F)(F)F)n[nH]1` [Example 167, N-(2,3-dichlorobenzyl)-N-(2-(diethylamino)ethyl)-3-(trifluoromethyl)-1H-pyrazole-5-carboxamide], the “Max. Resp.” value worked out at 100%.

Take `CCN(CC)CCN(Cc1cc(Cl)ccc1Cl)C(=O)c1cc(C(F)(F)F)n[nH]1` [Example 168, N-(2,5-dichlorobenzyl)-N-(2-(diethylamino)ethyl)-3-(trifluoromethyl)-1H-pyrazole-5-carboxamide]: the “Max. Resp.” value came to 100%.

Turning to `CCN(CC)CCN(Cc1c(Cl)cccc1Cl)C(=O)c1cc(C(F)(F)F)n[nH]1` [Example 169, N-(2,6-dichlorobenzyl)-N-(2-(diethylamino)ethyl)-3-(trifluoromethyl)-1H-pyrazole-5-carboxamide], the “Max. Resp.” value came out at 100%.

In the case of `CCN(CC)CCN(Cc1ccc(F)cc1Cl)C(=O)c1cc(C(F)(F)F)n[nH]1` [Example 170, N-(2-chloro-4-fluorobenzyl)-N-(2-(diethylamino)ethyl)-3-(trifluoromethyl)-1H-pyrazole-5-carboxamide], the “Max. Resp.” value stood at 100%.

On to `CCN(CC)CCN(Cc1cc(F)ccc1Cl)C(=O)c1cc(C(F)(F)F)n[nH]1` [Example 171, N-(2-chloro-5-fluorobenzyl)-N-(2-(diethylamino)ethyl)-3-(trifluoromethyl)-1H-pyrazole-5-carboxamide], for which the “Max. Resp.” value is 100%.

`CCN(CC)CCN(Cc1ccccc1Cl)C(=O)c1cc(Br)n[nH]1` [Example 175, N-(2-chlorobenzyl)-3-bromo-N-(2-(diethylamino)ethyl)-1H-pyrazole-5-carboxamide]: the “Max. Resp.” value is recorded as 100%.

On to `CCN(CC)CCN(Cc1ccccc1Cl)C(=O)c1cc(Cl)n[nH]1` [Example 176, N-(2-chlorobenzyl)-3-chloro-N-(2-(diethylamino)ethyl)-1H-pyrazole-5-carboxamide], for which the “Max. Resp.” value came to 100%.

Regarding `O=C(c1cc(C(F)(F)F)n[nH]1)N(CCN1CCCC1)Cc1c(F)cccc1Cl` [Example 177, N-(2-chloro-6-fluorobenzyl)-3-(trifluoromethyl)-N-(2-(pyrrolidin-1-yl)ethyl)-1H-pyrazole-5-carboxamide], the “Max. Resp.” value is on record as 100%.

On to `O=C(c1cc(C(F)(F)F)n[nH]1)N(CCN1CCCC1)Cc1c(Cl)cccc1Cl` [Example 178, N-(2,6-dichlorobenzyl)-3-(trifluoromethyl)-N-(2-(pyrrolidin-1-yl)ethyl)-1H-pyrazole-5-carboxamide], for which the “Max. Resp.” value amounted to 100%.

In the case of `O=C(c1cc(C(F)(F)F)n[nH]1)N(CCN1CCCCC1)Cc1c(F)cccc1Cl` [Example 179, N-(2-chloro-6-fluorobenzyl)-3-(trifluoromethyl)-N-(2-(piperidin-1-yl)ethyl)-1H-pyrazole-5-carboxamide], the “Max. Resp.” value is reported as 100%.

Take `O=C(c1cc(C(F)(F)F)n[nH]1)N(CCN1CCCCC1)Cc1c(Cl)cccc1Cl` [Example 180, N-(2,6-dichlorobenzyl)-3-(trifluoromethyl)-N-(2-(piperidin-1-yl)ethyl)-1H-pyrazole-5-carboxamide]: the “Max. Resp.” value was 100%.

Turning to `CC(CN(Cc1ccccc1Cl)C(=O)c1cc(C(F)(F)F)n[nH]1)N1CCCC1` (stereo not drawn) [Example 181, N-(2-chlorobenzyl)-3-(trifluoromethyl)-N-(2-(pyrrolidin-1-yl)propyl)-1H-pyrazole-5-carboxamide], the “Max. Resp.” value was 100%.

On to `CCN(CC)CCN(Cc1cccc(F)c1Cl)C(=O)c1cc(C(F)(F)F)n[nH]1` [Example 182, N-(2-chloro-3-fluorobenzyl)-N-(2-(diethylamino)ethyl)-3-(trifluoromethyl)-1H-pyrazole-5-carboxamide], for which the “Max. Resp.” value is 100%.

`CCN(CC)CCN(Cc1cc(N)ccc1Cl)C(=O)c1cc(C(F)(F)F)n[nH]1` [Example 183, N-(5-amino-2-chlorobenzyl)-N-(2-(diethylamino)ethyl)-3-(trifluoromethyl)-1H-pyrazole-5-carboxamide]: the “Max. Resp.” value is reported as 100%.

Consider `CCN(CC)CCN(Cc1ccccc1C(C)C)C(=O)c1cc(C(F)(F)F)n[nH]1` [Example 184, N-(2-isopropylbenzyl)-N-(2-(diethylamino)ethyl)-3-(trifluoromethyl)-1H-pyrazole-5-carboxamide], for which the “Max. Resp.” value was found to be 85%.

As for `CCN(CC)CCCN(Cc1ccccc1Cl)C(=O)c1cc(C(F)(F)F)n[nH]1` [Example 185, N-(2-chlorobenzyl)-N-(3-(diethylamino)propyl)-3-(trifluoromethyl)-1H-pyrazole-5-carboxamide], the “Max. Resp.” value is reported as 53%.

In the case of `CN(C)CCCN(Cc1ccccc1Cl)C(=O)c1cc(C(F)(F)F)n[nH]1` [Example 186, N-(2-chlorobenzyl)-N-(3-(dimethylamino)propyl)-3-(trifluoromethyl)-1H-pyrazole-5-carboxamide], the “Max. Resp.” value is given as 100%.

On to `CN(C)CCN(Cc1ccccc1Cl)C(=O)c1cc(C(F)(F)F)n[nH]1` [Example 187, N-(2-chlorobenzyl)-N-(2-(dimethylamino)ethyl)-3-(trifluoromethyl)-1H-pyrazole-5-carboxamide], for which the “Max. Resp.” value is listed as 100%.

For the compound `CC1CC(C)CN(CCN(Cc2ccccc2Cl)C(=O)c2cc(C(F)(F)F)n[nH]2)C1` (stereo not drawn) [Example 188, N-(2-chlorobenzyl)-3-(trifluoromethyl)-N-(2-(3,5-dimethylpiperidin-1-yl)ethyl)-1H-pyrazole-5-carboxamide], the “Max. Resp.” value is listed as 60%.

For `O=C(c1cc(C(F)(F)F)n[nH]1)N(CCN1CCCCCC1)Cc1ccccc1Cl` [Example 189, N-(2-chlorobenzyl)-N-(2-(azepan-1-yl)ethyl)-3-(trifluoromethyl)-1H-pyrazole-5-carboxamide], the “Max. Resp.” value was 100%.

On to `CC1CCN(CCN(Cc2ccccc2Cl)C(=O)c2cc(C(F)(F)F)n[nH]2)CC1` [Example 190, N-(2-chlorobenzyl)-3-(trifluoromethyl)-N-(2-(4-methylpiperidin-1-yl)ethyl)-1H-pyrazole-5-carboxamide], for which the “Max. Resp.” value is recorded as 100%.

For `CC1CCCN(CCN(Cc2ccccc2Cl)C(=O)c2cc(C(F)(F)F)n[nH]2)C1` (stereo not drawn) [Example 191, N-(2-chlorobenzyl)-3-(trifluoromethyl)-N-(2-(3-methylpiperidin-1-yl)ethyl)-1H-pyrazole-5-carboxamide], the “Max. Resp.” value came to 100%.

For the compound `CC1CCCCN1CCN(Cc1ccccc1Cl)C(=O)c1cc(C(F)(F)F)n[nH]1` (stereo not drawn) [Example 192, N-(2-chlorobenzyl)-3-(trifluoromethyl)-N-(2-(2-methylpiperidin-1-yl)ethyl)-1H-pyrazole-5-carboxamide], the “Max. Resp.” value is recorded as 100%.

With `CCN(CC)CCN(Cc1ccccc1Cl)C(=O)c1[nH]nc(Cl)c1F` [Example 193, N-(2-chlorobenzyl)-3-chloro-N-(2-(diethylamino)ethyl)-4-fluoro-1H-pyrazole-5-carboxamide], the “Max. Resp.” value was found to be 58%.

Turning to `O=C(c1cc(C(F)(F)F)n[nH]1)N(CCN1CCCCCC1)Cc1ccc(O)cc1Cl` [Example 194, N-(2-chloro-4-hydroxybenzyl)-N-(2-(azepan-1-yl)ethyl)-3-(trifluoromethyl)-1H-pyrazole-5-carboxamide], the “Max. Resp.” value is on record as 100%.

As to `O=C(c1cc(C(F)(F)F)n[nH]1)N(CCN1CCCCCC1)Cc1ccc(O)cc1F` [Example 195, N-(2-fluoro-4-hydroxybenzyl)-N-(2-(azepan-1-yl)ethyl)-3-(trifluoromethyl)-1H-pyrazole-5-carboxamide], the “Max. Resp.” value worked out at 100%.

In the case of `Nc1ccc(Cl)c(CN(CCN2CCCCCC2)C(=O)c2cc(C(F)(F)F)n[nH]2)c1` [Example 196, N-(5-amino-2-chlorobenzyl)-N-(2-(azepan-1-yl)ethyl)-3-(trifluoromethyl)-1H-pyrazole-5-carboxamide], the “Max. Resp.” value was 100%.

In the case of `O=C(c1cc(C(F)(F)F)n[nH]1)N(CCN1CCCCCC1)Cc1ccccc1F` [Example 197, N-(2-fluorobenzyl)-N-(2-(azepan-1-yl)ethyl)-3-(trifluoromethyl)-1H-pyrazole-5-carboxamide], the “Max. Resp.” value amounted to 100%.

`O=C(c1cc(C(F)(F)F)n[nH]1)N(CCN1CCCCCC1)Cc1c(F)cccc1F` [Example 198, N-(2,6-difluorobenzyl)-N-(2-(azepan-1-yl)ethyl)-3-(trifluoromethyl)-1H-pyrazole-5-carboxamide]: the “Max. Resp.” value is 100%.

On to `CCC1CCN(CCN(Cc2ccccc2Cl)C(=O)c2cc(C(F)(F)F)n[nH]2)CC1` [Example 199, N-(2-chlorobenzyl)-N-(2-(4-ethylpiperidin-1-yl)ethyl)-3-(trifluoromethyl)-1H-pyrazole-5-carboxamide], for which the “Max. Resp.” value was 100/100%.

Regarding `CC1CCCN(CCN(Cc2cc(N)ccc2Cl)C(=O)c2cc(C(F)(F)F)n[nH]2)C1` (stereo not drawn) [Example 200, N-(5-amino-2-chlorobenzyl)-3-(trifluoromethyl)-N-(2-(3-methylpiperidin-1-yl)ethyl)-1H-pyrazole-5-carboxamide], the “Max. Resp.” value turned out to be 100%.
